Measurements: ChEMBL document CHEMBL5108044, “Discovery of a Novel Potent STAT3 Inhibitor HP590 with Dual p-Tyr705/Ser727 Inhibitory Activity for Gastric Cancer Treatment” (J Med Chem, 2022)
Active and inactive are the calls of the source. No cut-off for these calls is given here.

Columns and labels:
[1] = biological target: T1, Signal transducer and activator of transcription 3 (Homo sapiens, UniProt P40763); experiment: Inhibition of STAT3 phosphorylation at Ser727 residue in human MGC-803 cells upto 40 nM by Western blotting analysis; format: cell-based; settings: time <= 24.0 hrs, TDE = time-dependent effect
T1 sequence (P40763 whole entry): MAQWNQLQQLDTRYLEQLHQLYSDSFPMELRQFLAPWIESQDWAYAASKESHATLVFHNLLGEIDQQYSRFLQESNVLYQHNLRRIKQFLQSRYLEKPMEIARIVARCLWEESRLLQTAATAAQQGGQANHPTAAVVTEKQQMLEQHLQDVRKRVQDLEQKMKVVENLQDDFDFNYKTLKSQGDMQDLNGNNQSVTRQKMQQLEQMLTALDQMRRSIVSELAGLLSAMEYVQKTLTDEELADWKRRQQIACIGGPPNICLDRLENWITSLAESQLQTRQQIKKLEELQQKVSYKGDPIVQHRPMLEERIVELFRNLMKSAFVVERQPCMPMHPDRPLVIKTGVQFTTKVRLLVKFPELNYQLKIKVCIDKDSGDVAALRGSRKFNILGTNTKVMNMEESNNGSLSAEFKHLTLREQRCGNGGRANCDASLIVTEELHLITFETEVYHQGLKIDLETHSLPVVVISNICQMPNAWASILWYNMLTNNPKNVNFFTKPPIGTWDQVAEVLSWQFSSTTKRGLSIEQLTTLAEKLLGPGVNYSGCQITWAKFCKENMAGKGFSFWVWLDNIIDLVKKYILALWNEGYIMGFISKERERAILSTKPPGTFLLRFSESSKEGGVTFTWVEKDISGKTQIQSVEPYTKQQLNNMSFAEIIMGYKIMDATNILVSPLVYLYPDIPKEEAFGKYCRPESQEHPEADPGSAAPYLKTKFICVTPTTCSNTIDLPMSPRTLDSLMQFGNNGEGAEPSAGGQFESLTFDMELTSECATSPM

[2] = biological target: T1, Signal transducer and activator of transcription 3; experiment: Inhibition of STAT3 in human MGC-803 cells assessed as downregulation of cyclin D1 expression incubated up to 24 hrs by western blot analysis; format: cell-based; settings: dose <= 40.0 nM, DDE = dose-dependent effect
[3] = AUC (0 to infinity) in ICR mouse plasma at 10 mg/kg, po measured up to 24 hrs by LC-MS/MS analysis; format: ADME, organism-based; parameters: dose 10 mg/kg, time < 24 hrs, route po
[4] = system: MKN-45; experiment: Inhibition of mitochondrial respiration in STAT3 knockdown human MKN-45 cells assessed as basal oxygen consumption rate incubated for 80 mins […]; format: functional, cell-based
[5] = AUC (0 to infinity) in ICR mouse plasma at 1 mg/kg, iv measured up to 24 hrs by LC-MS/MS analysis; format: ADME, organism-based; parameters: time < 24 hrs, dose 1 mg/kg, route iv
[6] = Toxicity in BALB/c nude mouse xenografted with human MKN-45 cells assessed as liver damage at 25 to 50 mg/kg, po qd administered for 5 weeks by H and E staining based analysis; format: organism-based; settings: in vivo, 840 h, dose 25-50 mg/kg
[7] = biological target: T1, Signal transducer and activator of transcription 3; experiment: Inhibition of STAT3 in human MKN-45 cells assessed as downregulation of Bcl2 expression at 10 to 40 nM incubated for 24 hrs by RT-PCR analysis; format: cell-based; settings: dose 10-40 nM
[8] = biological target: Cytochrome P450 2D6 (Homo sapiens, UniProt P10635); experiment: Inhibition of CYP2D6 in human liver microsome; format: ADME, microsomes
Cytochrome P450 2D6, sequence (P10635 whole entry): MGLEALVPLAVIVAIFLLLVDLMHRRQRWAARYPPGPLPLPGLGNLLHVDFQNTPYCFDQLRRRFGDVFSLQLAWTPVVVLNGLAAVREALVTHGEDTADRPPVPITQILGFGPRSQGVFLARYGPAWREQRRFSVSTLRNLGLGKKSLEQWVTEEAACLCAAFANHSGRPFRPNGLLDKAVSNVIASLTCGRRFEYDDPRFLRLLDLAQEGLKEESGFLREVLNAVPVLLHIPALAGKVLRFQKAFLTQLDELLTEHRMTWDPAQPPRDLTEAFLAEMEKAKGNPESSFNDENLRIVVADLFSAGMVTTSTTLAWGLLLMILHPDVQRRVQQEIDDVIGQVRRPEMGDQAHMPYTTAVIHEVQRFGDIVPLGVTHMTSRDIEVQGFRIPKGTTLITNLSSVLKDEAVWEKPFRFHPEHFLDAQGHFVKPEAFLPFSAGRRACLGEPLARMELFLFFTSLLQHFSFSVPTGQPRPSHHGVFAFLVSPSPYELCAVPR

[9] = system: MKN-45; experiment: Antitumor activity against human MKN-45 cells xenografted in BALB/c nude mouse assessed as decrease in tumor volume at 25 mg/kg, po qd measured for 5 weeks; format: functional, organism-based
[10] = system: AGS; experiment: Antiproliferative activity against human AGS cells assessed as reduction in cell viability incubated for 72 hrs by MTS assay; format: functional, cell-based
[11] = system: NIH3T3; experiment: Antiproliferative activity against […] cells assessed as cell viability measured upto 1 uM incubated for 72 hrs by MTS assay; format: toxicity, cell-based; settings: mouse, nih3t3, 72 h
[12] = biological target: T1, Signal transducer and activator of transcription 3; experiment: Inhibition of STAT3 in human MKN-45 cells assessed as downregulation of cyclin D1 expression incubated up to 24 hrs by western blot analysis; format: cell-based; settings: dose <= 40.0 nM, DDE = dose-dependent effect
[13] = biological target: T1, Signal transducer and activator of transcription 3; experiment: Inhibition of STAT3 phosphorylation at Ser727 residue in human MGC-803 cells incubated upto 24 hrs by Western blotting analysis; format: cell-based; settings: dose <= 40.0 nM, DDE = dose-dependent effect
[14] = system: MGC-803; experiment: Antiproliferative activity against human MGC-803 cells assessed as cell viability incubated for 72 hrs by MTS assay; format: functional, cell-based; settings: dose <= 100.0 nM, DDE = dose-dependent effect
[15] = biological target: T1, Signal transducer and activator of transcription 3; experiment: Inhibition of STAT3 phosphorylation at Tyr705 residue in human MGC-803 cells upto 40 nM incubated upto 24 hrs by Western blotting analysis; format: cell-based
[16] = system: AGS; experiment: Induction of apoptosis in human AGS cells assessed as late apoptic cells 20 nM incubated for 48 hrs by FITC-annexin V/propidium iodide staining based flow cytometry (reference value: 9.56%); format: functional
[17] = system: MKN-45; experiment: In vivo inhibition of STAT3 phosphorylation at Tyr705 residue in human MKN-45 cells xenografted in BALB/c nude mouse at 25 to 50 mg/kg, po qd administered for 5 weeks by western blot analysis; format: functional, organism-based; settings: dose 25-50 mg/kg
[18] = system: MKN-45; experiment: Induction of apoptosis in human MKN-45 cells assessed as early apoptic cells 5 nM incubated for 48 hrs by FITC-annexin V/propidium iodide staining based flow cytometry (reference value: 2.79%); format: functional
[19] = system: AGS; experiment: Induction of apoptosis in human AGS cells assessed as necrotic cells 10 nM incubated for 48 hrs by FITC-annexin V/propidium iodide staining based flow cytometry (reference value: 2.70%); format: functional
[20] = system: MKN-45; experiment: Induction of apoptosis in human MKN-45 cells assessed as necrotic cells 10 nM incubated for 48 hrs by FITC-annexin V/propidium iodide staining based flow cytometry (reference value: 10.3%); format: functional
[21] = system: MKN-45; experiment: Inhibition of mitochondrial respiration in human MKN-45 cells assessed as decrease in basal oxygen consumption rate at 1 to 100 nM incubated for 1 hr by Seahorse XF24 extracellular flux analyzer; format: functional, cell-based; settings: dose 1-100 nM
[22] = system: GES1; experiment: Antiproliferative activity against human GES1 cells assessed as cell viability measured upto 1 uM incubated for 72 hrs by MTS assay; format: toxicity, cell-based; settings: ges1, 72 h
[23] = biological target: T1, Signal transducer and activator of transcription 3; experiment: Inhibition of STAT3 in human AGS cells assessed as downregulation of Survivin expression at 10 to 40 nM incubated for 24 hrs by RT-PCR analysis; format: cell-based; settings: dose 10-40 nM
[24] = biological target: Tyrosine-protein kinase JAK2 (Homo sapiens, UniProt O60674); experiment: Inhibition of JAK2 (unknown origin)
Tyrosine-protein kinase JAK2, sequence (O60674 whole entry): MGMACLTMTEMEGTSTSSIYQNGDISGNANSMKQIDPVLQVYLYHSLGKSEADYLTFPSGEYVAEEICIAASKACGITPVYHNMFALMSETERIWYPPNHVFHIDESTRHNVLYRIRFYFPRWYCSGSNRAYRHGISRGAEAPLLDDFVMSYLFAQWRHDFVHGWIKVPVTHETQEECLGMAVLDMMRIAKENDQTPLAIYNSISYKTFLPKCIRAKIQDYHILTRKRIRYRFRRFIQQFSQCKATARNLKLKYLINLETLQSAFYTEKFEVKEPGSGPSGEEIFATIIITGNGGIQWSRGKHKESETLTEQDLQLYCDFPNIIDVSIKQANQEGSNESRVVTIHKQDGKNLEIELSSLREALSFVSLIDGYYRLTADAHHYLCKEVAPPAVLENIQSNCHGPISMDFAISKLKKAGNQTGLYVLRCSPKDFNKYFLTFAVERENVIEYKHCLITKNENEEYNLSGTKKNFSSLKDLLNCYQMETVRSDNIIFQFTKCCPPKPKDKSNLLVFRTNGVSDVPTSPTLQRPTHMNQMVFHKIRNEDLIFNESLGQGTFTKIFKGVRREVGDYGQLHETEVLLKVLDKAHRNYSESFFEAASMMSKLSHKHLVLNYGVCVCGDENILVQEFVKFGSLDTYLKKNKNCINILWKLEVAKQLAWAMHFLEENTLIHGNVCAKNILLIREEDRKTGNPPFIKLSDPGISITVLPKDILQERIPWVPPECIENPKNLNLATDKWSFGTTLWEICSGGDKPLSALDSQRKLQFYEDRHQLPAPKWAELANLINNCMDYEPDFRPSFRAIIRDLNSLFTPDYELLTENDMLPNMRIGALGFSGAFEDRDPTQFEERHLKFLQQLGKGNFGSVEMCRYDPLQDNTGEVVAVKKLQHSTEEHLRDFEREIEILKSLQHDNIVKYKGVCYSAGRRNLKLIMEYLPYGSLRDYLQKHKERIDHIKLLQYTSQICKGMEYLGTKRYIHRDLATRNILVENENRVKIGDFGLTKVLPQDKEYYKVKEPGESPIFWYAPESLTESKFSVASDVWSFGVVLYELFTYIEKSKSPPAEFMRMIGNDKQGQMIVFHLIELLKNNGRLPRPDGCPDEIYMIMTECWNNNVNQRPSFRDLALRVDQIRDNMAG

[25] = biological target: T1, Signal transducer and activator of transcription 3; experiment: Inhibition of STAT3 phosphorylation at Ser727 residue in human MKN-45 cells incubated upto 24 hrs by Western blotting analysis; format: cell-based; settings: dose <= 40.0 nM, DDE = dose-dependent effect
[26] = biological target: T1, Signal transducer and activator of transcription 3; experiment: Inhibition of STAT3 in human AGS cells assessed as downregulation of c-myc expression at 10 to 40 nM incubated for 24 hrs by RT-PCR analysis; format: cell-based; settings: dose 10-40 nM
[27] = Cmax in ICR mouse plasma at 1 mg/kg, iv measured up to 24 hrs by LC-MS/MS analysis; format: ADME, organism-based; parameters: time < 24 hrs, dose 1 mg/kg, route iv
[28] = system: MKN-45; experiment: Induction of apoptosis in human MKN-45 cells assessed as early apoptic cells 10 nM incubated for 48 hrs by FITC-annexin V/propidium iodide staining based flow cytometry (reference value: 2.79%); format: functional
[29] = biological target: T1, Signal transducer and activator of transcription 3; experiment: Inhibition of STAT3 phosphorylation at Tyr705 residue in human MKN-45 cells upto 40 nM incubated upto 24 hrs by Western blotting analysis; format: cell-based
[30] = system: MKN-45; experiment: In vivo inhibition of STAT3 phosphorylation at Ser727 residue in human MKN-45 cells xenografted in BALB/c nude mouse at 25 to 50 mg/kg, po qd administered for 5 weeks by immunohistochemical analysis; format: functional, organism-based; settings: dose 25-50 mg/kg
[31] = system: MKN-45; experiment: Inhibition of colony formation in human MKN-45 cells assessed as reduction in number of colonies incubated for 5 to 7 days by crystal violet staining based assay; format: functional, cell-based; settings: dose <= 20.0 nM, time 5-7 day, DDE = dose-dependent effect
[32] = biological target: T1, Signal transducer and activator of transcription 3; experiment: Inhibition of STAT3 in human MKN-45 cells assessed as downregulation of cyclin D1 expression up to 40 nM by western blot analysis; format: cell-based; settings: time <= 24.0 hrs, TDE = time-dependent effect
[33] = system: MKN-45; experiment: Antitumor activity against human MKN-45 cells xenografted in po dosed BALB/c nude mouse assessed as decrease in tumor volume measured for 5 weeks; format: functional, organism-based; settings: dose 25-50 mg/kg, DDE = dose-dependent effect
[34] = biological target: Epidermal growth factor receptor (Homo sapiens, UniProt P00533); experiment: Inhibition of EGFR (unknown origin)
Epidermal growth factor receptor, sequence (P00533 whole entry): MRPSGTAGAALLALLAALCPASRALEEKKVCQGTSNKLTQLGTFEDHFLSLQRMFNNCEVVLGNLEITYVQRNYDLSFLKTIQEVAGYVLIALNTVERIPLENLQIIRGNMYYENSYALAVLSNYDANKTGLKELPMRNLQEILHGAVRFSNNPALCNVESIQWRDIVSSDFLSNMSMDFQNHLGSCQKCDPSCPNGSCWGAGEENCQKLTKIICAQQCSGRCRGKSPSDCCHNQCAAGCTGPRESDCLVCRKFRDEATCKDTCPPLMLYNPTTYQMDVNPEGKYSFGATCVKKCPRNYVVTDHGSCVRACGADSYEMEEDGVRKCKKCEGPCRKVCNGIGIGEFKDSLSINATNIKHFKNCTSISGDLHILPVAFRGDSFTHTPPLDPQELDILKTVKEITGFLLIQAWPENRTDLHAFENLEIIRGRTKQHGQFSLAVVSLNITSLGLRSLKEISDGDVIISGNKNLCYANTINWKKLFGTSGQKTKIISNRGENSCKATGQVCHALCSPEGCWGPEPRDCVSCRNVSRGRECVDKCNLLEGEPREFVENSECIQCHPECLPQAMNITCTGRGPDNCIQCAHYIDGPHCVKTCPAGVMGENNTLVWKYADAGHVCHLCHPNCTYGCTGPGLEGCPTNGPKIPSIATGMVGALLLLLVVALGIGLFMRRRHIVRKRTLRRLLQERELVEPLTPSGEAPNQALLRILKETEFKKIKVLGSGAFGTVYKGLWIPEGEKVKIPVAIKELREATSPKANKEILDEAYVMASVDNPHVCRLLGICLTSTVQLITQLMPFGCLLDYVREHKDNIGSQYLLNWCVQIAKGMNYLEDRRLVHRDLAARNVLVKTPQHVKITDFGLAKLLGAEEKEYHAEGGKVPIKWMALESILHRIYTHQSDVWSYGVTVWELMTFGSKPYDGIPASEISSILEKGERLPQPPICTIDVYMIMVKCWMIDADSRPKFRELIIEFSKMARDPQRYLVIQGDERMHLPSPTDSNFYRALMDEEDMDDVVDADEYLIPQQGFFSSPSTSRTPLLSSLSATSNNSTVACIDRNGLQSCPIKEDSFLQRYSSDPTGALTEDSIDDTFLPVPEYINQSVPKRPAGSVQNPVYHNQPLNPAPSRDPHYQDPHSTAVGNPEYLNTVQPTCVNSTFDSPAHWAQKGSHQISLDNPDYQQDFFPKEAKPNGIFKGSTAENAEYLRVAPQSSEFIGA

[35] = biological target: T1, Signal transducer and activator of transcription 3; experiment: Inhibition of IL-6 induced STAT3 phosphorylation at Tyr705 residue in human MKN-45 cells at 40 nM preincubated for 24 hrs followed by IL-6 stimulation and measured after 30 min by Western blotting analysis; format: cell-based; settings: time 24.5 hrs
[36] = AUC (0 to t) in ICR mouse plasma at 10 mg/kg, po measured up to 24 hrs by LC-MS/MS analysis; format: ADME, organism-based; parameters: time < 24 hrs, dose 10 mg/kg, route po

Compound: O=C(c1ccc(-c2noc(-c3ccc(C(F)(F)F)cc3)n2)cc1)N1CCN(Cc2ccc(OCC(F)(F)F)cc2)CC1
- inhibition [1]: Tde
- inhibition [2]: Dde
- AUC(0-inf) [3]: 15500 ng·h/mL
- inhibition [4]: Active
- AUC(0-inf) [5]: 2270 ng·h/mL
- Activity [6]: Non-Toxic
- inhibition [7]: Active
- IC50 [8]: > 50 µM
- Activity [9]: Active
- IC50 [10]: 0.0135 µM
- Activity [11]: Non-Toxic
- inhibition [12]: Dde
- inhibition [13]: Dde
- Activity [14]: Dde
- inhibition [15]: 100%
- Activity [16]: 27.1%
- inhibition [17]: Active
- Activity [18]: 4.73%
- Activity [19]: 4.79%
- Activity [20]: 9.14%
- inhibition [21]: Active
- Activity [22]: Non-Toxic
- inhibition [23]: Active
- IC50 [24]: > 10 µM
- inhibition [25]: Dde
- inhibition [26]: Active
- Cmax [27]: 666 ng/mL
- Activity [28]: 5.7%
- inhibition [29]: 100%
- inhibition [30]: Active
- inhibition [31]: Dde
- inhibition [32]: Tde
- Activity [33]: Dde
- IC50 [34]: > 10 µM
- inhibition [35]: Active
- AUC(0-t) at 24 h [36]: 9400 ng·h/mL
